Experimental data from ChEMBL document CHEMBL5143717 (J Med Chem, 2022).

Key:
[1] = Drug concentration in rat at 2 mg/kg, po measured after 24 hrs; assay type: ADME, organism-based; details: in vivo; for concentration at 24 h: read-out: Drug uptake; for Drug uptake: po, 2 mg/kg, 24 h, BLD = below limit of detection
[2] = AUClast in rat at 2 mg/kg, po; assay type: ADME, organism-based; set-up: time 0 - last, dose 2 mg/kg, route po; details: in vivo
[3] = Volume of distribution at steady state in dog at 1 mg/kg, po or 0.5 mg/kg, iv; assay type: ADME, organism-based, Canis lupus familiaris; details: in vivo
[4] = Volume of distribution at steady state in rat at 2 mg/kg, po or 0.5 mg/kg, iv; assay type: ADME, organism-based; details: in vivo
[5] = Oral bioavailability in rat at 2 mg/kg; assay type: ADME, organism-based; details: in vivo
[6] = Oral bioavailability in cynomolgus monkey at 1 mg/kg; assay type: ADME, organism-based, Macaca fascicularis; details: in vivo
[7] = Oral bioavailability in dog at 1 mg/kg; assay type: ADME, organism-based, Canis lupus familiaris; details: in vivo
[8] = Volume of distribution at steady state in cynomolgus monkey at 1 mg/kg, po or 0.5 mg/kg, iv; assay type: ADME, organism-based, Macaca fascicularis; details: in vivo

Row | SMILES | concentration at 24 h [1] [nM] | AUC(0-t) [2] [µM·h] | further results
1 | COc1cc(OCc2coc(N3CCOCC3)n2)c2cc(-c3cn4nc(OC)sc4n3)oc2c1 | 69 | 13.1 | 
2 | COc1cc(OCc2csc(-c3ccc(S(C)(=O)=O)cc3)n2)c2cc(-c3cn4nc(OC)sc4n3)oc2c1 | 2 | 0.26 | 
3 | COc1cc(OCc2csc(N3CC4CCC(C3)O4)n2)c2cc(-c3cn4nc(OC)sc4n3)oc2c1 | 12 | 1.9 | 
4 | COc1cc(OCc2cccc(-c3ccc(C#N)cn3)c2)c2cc(-c3cn4nc(OC)sc4n3)oc2c1 | 13 | 0.91 | 
5 | CNC(=O)c1ccc(-c2nc(COc3cc(OC)cc4oc(-c5cn6nc(OC)sc6n5)cc34)cs2)cc1 |  | 0.04 | Drug uptake [1]: Bld
6 | COc1cc(OCc2csc(-c3ccccc3)n2)c2cc(-c3cn4nc(OC)sc4n3)oc2c1 | 89 | 8 | 
7 | COc1cc(OCc2csc(-c3ccc(C(=O)N4CCC(F)(F)C4)cc3)n2)c2cc(-c3cn4nc(OC)sc4n3)oc2c1 | 1.8 | 0.58 | 
8 | COc1cc(OCc2csc(N3CCCOCC3)n2)c2cc(-c3cn4nc(OC)sc4n3)oc2c1 | 49 | 5 | 
9 | COc1cc(OCc2cccc(-c3ccc(C(F)(F)F)cn3)c2)c2cc(-c3cn4nc(OC)sc4n3)oc2c1 |  | 0.83 | Drug uptake [1]: Bld
10 | COc1cc(OCc2nc(N3CCOCC3)sc2C)c2cc(-c3cn4nc(OC)sc4n3)oc2c1 | 230 |  | Vdss [3]: 5.9 L/kg; Vdss [4]: 1.4 L/kg; F [5]: 21%; bioavailability [6]: 26%; bioavailability [7]: 19%; Vdss [8]: 11 L/kg; AUClast [2]: 23.7 µM·h
11 | COc1cc(OCc2cccc(-c3ccc(C#N)cc3)c2)c2cc(-c3cn4nc(OC)sc4n3)oc2c1 | 13 | 1.2 | 
12 | COc1cc(OCc2cccc(-c3ccoc3)c2)c2cc(-c3cn4nc(OC)sc4n3)oc2c1 | 140 | 10.9 | 
13 | COc1cc(OCc2csc(-c3ccc(C(C)(C)O)cc3)n2)c2cc(-c3cn4nc(OC)sc4n3)oc2c1 | 6.7 | 0.92 | 
14 | COc1cc(OCc2csc(-c3ccc(C(N)=O)cc3)n2)c2cc(-c3cn4nc(OC)sc4n3)oc2c1 |  |  | Drug uptake [1]: Bld
15 | COc1cc(OCc2cccc(-c3cnc(OC)cn3)c2)c2cc(-c3cn4nc(OC)sc4n3)oc2c1 | 7.7 | 1.4 | 
16 | COc1cc(OCc2csc(N3CCN(C)CC3)n2)c2cc(-c3cn4nc(OC)sc4n3)oc2c1 | 5 | 1.8 | 
17 | COc1cc(OCc2cccc(-c3cnc(OC)nc3)c2)c2cc(-c3cn4nc(OC)sc4n3)oc2c1 | 29 | 2 | 

Row | SMILES | concentration at 24 h [1] [nM] | AUC(0-t) [2] [µM·h] | further results
18 | COc1cc(OCc2nc(N3CCOCC3)sc2C(F)(F)F)c2cc(-c3cn4nc(OC)sc4n3)oc2c1 | 14 | 2.4 | 
19 | COc1cc(OCc2csc(N3CCCCC3)n2)c2cc(-c3cn4nc(OC)sc4n3)oc2c1 | 340 | 21.6 | 
20 | COc1cc(OCc2csc(-c3ccc(C(F)(F)F)cc3)n2)c2cc(-c3cn4nc(OC)sc4n3)oc2c1 | 9 | 1.3 | 
21 | COc1cc(OCc2csc(-c3ccc(C(=O)N4CCCC4)cc3)n2)c2cc(-c3cn4nc(OC)sc4n3)oc2c1 | 4.7 | 3 | 
22 | COc1ccc(-c2cccc(COc3cc(OC)cc4oc(-c5cn6nc(OC)sc6n5)cc34)c2)nc1 | 22 | 3.3 | 
23 | COc1cc(OCc2csc(C3CCC(F)(F)CC3)n2)c2cc(-c3cn4nc(OC)sc4n3)oc2c1 | 21 | 0.8 | 
24 | COc1cc(OCc2csc(C3CCOCC3)n2)c2cc(-c3cn4nc(OC)sc4n3)oc2c1 | 28 | 3.7 | 
25 | COc1cc(OCc2cccc(-c3ccc(OC)nc3)c2)c2cc(-c3cn4nc(OC)sc4n3)oc2c1 | 19 | 3.5 | 
26 | COc1cc(OCc2csc(N3CCOCC3)n2)c2cc(-c3cn4nc(OC)sc4n3)oc2c1 | 240 | 16.2 | 
27 | COc1cc(OCc2ccnc(-c3ccccc3)n2)c2cc(-c3cn4nc(OC)sc4n3)oc2c1 | 94 | 7.4 | 
28 | COc1cc(OCc2cccc(OCc3ccccc3)c2)c2cc(-c3cn4nc(OC)sc4n3)oc2c1 | 3 | 0.66 | 
29 | COc1cc(OCc2ccccc2)c2cc(-c3cn4nc(OC)sc4n3)oc2c1 | 46 | 5.5 | 
30 | COc1cc(OCc2cccc(N3CCOCC3)n2)c2cc(-c3cn4nc(OC)sc4n3)oc2c1 | 93 | 7.3 | 
31 | COc1cc(OCc2ccnc(N3CCOCC3)n2)c2cc(-c3cn4nc(OC)sc4n3)oc2c1 | 86 | 7.5 | 
32 | COc1cc(OCc2cc(C(F)(F)F)ccc2C)c2cc(-c3cn4nc(OC)sc4n3)oc2c1 | 12 | 1.9 | 
33 | COc1cc(OCc2csc(-c3ccc(C(=O)N(C)C)cc3)n2)c2cc(-c3cn4nc(OC)sc4n3)oc2c1 [BMS-986141] | 4.7 |  | Vdss [3]: 2.7 L/kg; Vdss [4]: 2.7 L/kg; F [5]: 31%; bioavailability [6]: 36%; bioavailability [7]: 25%; Vdss [8]: 14 L/kg; AUClast [2]: 3.1 µM·h
